Assay results from patent publication US20250129430A1, “HIGH ATP-AFFINITY PROTEIN AS THERAPEUTIC TARGET FOR INTRACTABLE CANCER MOLECULAR SUBTYPES AND INHIBITOR THEREOF” (VeraVerse Co., Ltd., priority 2021, published 2025).
Where a name gives a salt, the structure may show the parent alone.

Tests used:
Test in all cases: Cell viability drug screen, 12-point dose-response AUC
Assay type in all cases: cell-based, human
SNU601 = SNU601 cells; 72 hours
In short: (§1)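 Each cell line receives a twelve-point half-log titration of drug beginning 24 h after plating 5×10^3 cells per well. Following 72 h culture at 37 °C, luminescent signal is recorded and expressed versus vehicle. AUC is derived by the trapezoidal method.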

SNU1 = SNU1 cells; 72 hours
In short: as §1

SNU1967 = SNU1967 cells; 72 hours
In short: as §1

MKN1 = MKN1 cells; 72 hours
In short: as §1

NCC59 = NCC59 cells; 72 hours
In short: as §1

SNU484 = SNU484 cells (SEM subtype); 72 hours
In short: as §1

NCC20 = NCC20 cells; 72 hours
In short: as §1

NCI_N87 = NCI_N87 cells; 72 hours
In short: as §1

NCC19 = NCC19 cells; 72 hours
In short: as §1

YCC11 = YCC11 cells (SEM subtype); 72 hours
In short: as §1

Hs746T = Hs746T cells (SEM subtype); 72 hours
In short: as §1

SK4 = SK4 cells (SEM subtype); 72 hours
In short: as §1

MKN45 = MKN45 cells (non-SEM subtype); 72 hours
In short: as §1

SNU620 = SNU620 cells; 72 hours
In short: as §1

SNU16 = SNU16 cells; 72 hours
In short: as §1

KATO3 = KATO3 cells; 72 hours
In short: as §1

MKN74 = MKN74 cells; 72 hours
In short: as §1

YCC2 = YCC2 cells; 72 hours
In short: as §1

SNU1750 = SNU1750 cells (SEM subtype); 72 hours
In short: as §1

OCUM1 = OCUM1 cells; 72 hours
In short: as §1

AGS = AGS cells (non-SEM subtype); 72 hours
In short: as §1

SNU668 = SNU668 cells (SEM subtype); 72 hours
In short: as §1

SNU719 = SNU719 cells; 72 hours
In short: as §1

MKN28 = MKN28 cells; 72 hours
In short: as §1

YCC3 = YCC3 cells; 72 hours
In short: as §1

SNU216 = SNU216 cells (non-SEM subtype); 72 hours
In short: as §1

SNU638 = SNU638 cells; 72 hours
In short: as §1

NCC24 = NCC24 cells; 72 hours
In short: as §1

FU97 = system: FU97; parameters: Average Area Under the Viability Curve (AUC), AUC norm value: scale not given here; conditions: FU97 cells; 72 hours
In short: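 Trapezoidal AUC of a 12-point, DMSO-normalized dose-response curve. Luminescent viability was measured after 72 h of exposure at 37° C to half-log serial dilutions (0.5% DMSO control), dosed 24 h after plating FU97 cells at 5×10^3 per well.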

SMILES | Average Area Under the Viability Curve (AUC), AUC norm value (SNU601) | Average Area Under the Viability Curve (AUC), AUC norm value (SNU1) | Average Area Under the Viability Curve (AUC), AUC norm value (SNU1967) | Average Area Under the Viability Curve (AUC), AUC norm value (MKN1) | Average Area Under the Viability Curve (AUC), AUC norm value (NCC59) | Average Area Under the Viability Curve (AUC), AUC norm value (SNU484) | Average Area Under the Viability Curve (AUC), AUC norm value (NCC20) | Average Area Under the Viability Curve (AUC), AUC norm value (NCI_N87) | Average Area Under the Viability Curve (AUC), AUC norm value (NCC19) | Average Area Under the Viability Curve (AUC), AUC norm value (YCC11) | Average Area Under the Viability Curve (AUC), AUC norm value (Hs746T) | Average Area Under the Viability Curve (AUC), AUC norm value (SK4) | Average Area Under the Viability Curve (AUC), AUC norm value (MKN45) | Average Area Under the Viability Curve (AUC), AUC norm value (SNU620) | Average Area Under the Viability Curve (AUC), AUC norm value (SNU16) | Average Area Under the Viability Curve (AUC), AUC norm value (KATO3) | Average Area Under the Viability Curve (AUC), AUC norm value (MKN74) | Average Area Under the Viability Curve (AUC), AUC norm value (YCC2) | Average Area Under the Viability Curve (AUC), AUC norm value (SNU1750) | Average Area Under the Viability Curve (AUC), AUC norm value (OCUM1) | also measured
CO[C@@H](C(=O)N1Cc2n[nH]c(NC(=O)c3ccc(N4CCN(C)CC4)cc3)c2C1)c1ccccc1 [Danusertib (PHA-739358), Danusertib] | 2.877 | −2.274 | 0.03541 | −0.8271 | 1.632 | −1.537 | −4.082 | 2.122 | 1.885 | −1.357 | 1.565 | −0.6677 | 2.103 | −2.616 | −3.76 | −0.3046 | 0.1321 | −0.9901 | −2.3091 | 0.8742 | Average Area Under the Viability Curve (AUC), AUC norm value (AGS): −1.034; Average Area Under the Viability Curve (AUC), AUC norm value (SNU668): 1.049; Average Area Under the Viability Curve (AUC), AUC norm value (SNU719): 3.935; Average Area Under the Viability Curve (AUC), AUC norm value (MKN28): 1.245; Average Area Under the Viability Curve (AUC), AUC norm value (YCC3): 0.7949; Average Area Under the Viability Curve (AUC), AUC norm value (SNU216): 0; Average Area Under the Viability Curve (AUC), AUC norm value (SNU638): −0.2145; Average Area Under the Viability Curve (AUC), AUC norm value (NCC24): 0.9879; Average Area Under the Viability Curve (AUC), AUC norm value (FU97): −2.488
COc1cccc2c1C(=O)c1c(O)c3c(c(O)c1C2=O)C[C@@](O)(C(C)=O)C[C@@H]3O[C@H]1C[C@H](N)[C@H](O)[C@H](C)O1 [Daunorubicin HCl (Daunomycin HCl), Daunorubicin HCl] | 1.207 | −0.7605 | −1.481 | −0.2877 | −0.5161 | −1.299 | −0.7736 | 4.5372 | 0.9357 | −1.742 | 0.1484 | 0 | 2.949 | −1.239 | −1.065 | 6.288 | 1.215 | 1.127 | −0.7795 | 0.7066 | Average Area Under the Viability Curve (AUC), AUC norm value (AGS): −1.2278; Average Area Under the Viability Curve (AUC), AUC norm value (SNU668): −0.9142; Average Area Under the Viability Curve (AUC), AUC norm value (SNU719): 3.416; Average Area Under the Viability Curve (AUC), AUC norm value (MKN28): 2.146; Average Area Under the Viability Curve (AUC), AUC norm value (YCC3): 2.699; Average Area Under the Viability Curve (AUC), AUC norm value (SNU216): 0.4507; Average Area Under the Viability Curve (AUC), AUC norm value (SNU638): −1.229; Average Area Under the Viability Curve (AUC), AUC norm value (NCC24): −0.8801; Average Area Under the Viability Curve (AUC), AUC norm value (FU97): 0.3965
COc1cccc2c1C(=O)c1c(O)c3c(c(O)c1C2=O)C[C@@](O)(C(=O)CO)C[C@@H]3O[C@H]1C[C@H](N)[C@H](O)[C@H](C)O1 [Doxorubicin (Adriamycin), Doxorubicin] | 4.481 | 0 | −0.8787 | −0.2016 | 1.231 | −0.8418 | −0.4879 | 6.891 | 2.867 | −1.877 | −0.08449 | 0.213 | 2.505 | −0.2009 | −0.0398 | 7.9338 | 1.522 | 1.4121 | −0.9576 | 0.6788 | Average Area Under the Viability Curve (AUC), AUC norm value (AGS): −1.081; Average Area Under the Viability Curve (AUC), AUC norm value (SNU668): −0.3909; Average Area Under the Viability Curve (AUC), AUC norm value (SNU719): 4.66; Average Area Under the Viability Curve (AUC), AUC norm value (MKN28): 2.98; Average Area Under the Viability Curve (AUC), AUC norm value (YCC3): 2.8776; Average Area Under the Viability Curve (AUC), AUC norm value (SNU216): 0.7466; Average Area Under the Viability Curve (AUC), AUC norm value (SNU638): −0.3342; Average Area Under the Viability Curve (AUC), AUC norm value (NCC24): −0.6126; Average Area Under the Viability Curve (AUC), AUC norm value (FU97): −1.237
